Reference: patent US20060046972A1, “Cytotoxic nucleoside analog compound 003 for treating cancer” (Parker Hughes Institute, priority 2004, published 2006)
Several values for one entry are separate records, joined by “and”; a condition that tells them apart may be missing. Equal entries are not always repeated.

Test system: CD-1 mice
Experiment: Acute toxicity of intraperitoneal bolus doses in CD-1 mice
Format: in vivo
Procedure: 1.2.8 Animals Female CD-1 mice (Body weight: ˜25 g; Age: 7 week old) were purchased, from Charles River Laboratories (Willmington, Mass., USA). MMTV Neu-mice [FVB/N-TgN(MMTV neu)202MUL; Jackson Laboratory, Bar Harbor, Me.] were bred to produce multiple litters. All mice were housed in microisolator cages (Lab Products, Inc., Maywood, N.Y., USA) containing autoclaved bedding in a controlled specific pathogen-free (SPF) environment (12-h light/12-h dark photoperiod, 22±1° C., 60±10% relative humidity), which is fully accredited by the USDA (United States Department of Agriculture). Adult male Lewis rats (Body weight: ˜160 g) were obtained from the specific pathogen-free (SPF) breeding facilities of Harlan Sprague Dawley (Indianapolis, Id., USA) at 14 weeks of age. All husbandry and experimental contact made with the mice and rats maintained SPF conditions. The rats were kept in microisolater cages (Allentown Caging Equipment Co., Inc., Allentown, N.J., USA) containing autoclaved food, water, and bedding. Animal studies were approved by Parker Hughes Institute Animal Care and Use Committee and all animal care procedures 1.5 conformed to the Guide for the Care and Use of Laboratory Animals (National Research Council, National Academy Press, Washington D.C. 1996, USA).
The toxicity profile of Compound 003 in CD-1 mice and Lewis rats was examined, using standard procedures as previously reported for other experimental drugs (Uckun, et al., 2003, Arzneimittelforschun. 53:357; Uckun, et al., 2002, Clin Cancer Res. 8: 1224; Uckun, et al., 2002, Antimicrob Agents Chemother. 46:3428). In brief, mice and rats were treated with intraperitoneal injections of vehicle or Compound 003 at multiple dose levels. Compound 003 was administered as a 0.2 mL (for mice) or 0.5 mL (for rats) bolus injection containing 10% DMSO as a vehicle. Animals were allowed free access to autoclaved standard pellet food and tap water throughout the experiments and monitored daily for morbidity and mortality. Animals were electively sacrificed on day 7 or day 30 to determine the toxicity of Compound 003 by examining their blood chemistry profiles, blood counts, and evaluating multiple organs for the presence of toxic lesions. Blood was collected by intracardiac puncture following anesthesia with ketamine:xylazine and immediately heparinized. The blood chemistry profiles were examined using a Synchron CX5CE Chemical Analyzer (Beckman Instruments, Inc., Fullerton, Calif., USA). Blood counts (red blood cells [RBC], white blood cells [WBC] and platelets [Plt]) were determined using a HESKA Vet ABC-Diff Hematology Analyzer (HESKA Corporation, Fort Collins, Colo., USA). Absolute neutrophil counts (ANC) and absolute lymphocyte counts (ALC) were calculated from WBC values after determining the percentages of neutrophils and lymphocytes by a manual differential count. At the time of necropsy, […] from mice (bone, bone marrow, brain, cecum, heart, kidney, large intestine, liver, lung, lymph node, ovary, pancreas, skeletal muscle, skin, small intestine, spleen, stomach, thymus, thyroid gland, urinary bladder, and uterus, as available) and 21 different tissues from rats (bone, bone marrow, brain, coagulating gland, epididymis, heart, large intestine, small intestine, kidney, liver, lung, pancreas, peripheral nerve/spinal nerve, skeletal muscle, skin, spinal cord, spleen, stomach, testes, thymus, urinary bladder) were collected within 15 minutes after sacrifice, gross pathological findings were documented, organs were preserved in 10% neutral phosphate buffered formalin, and processed for histopathological examination. For histopathologic studies, formalin fixed tissues were dehydrated and embedded in paraffin by routine methods. Glass slides with affixed 4-5 micron tissue sections were prepared and stained with Hemotoxylin and Eosin (H&E). […]

[1] = 10 mg/kg single i.p. bolus, Day 7
[2] = 10 mg/kg single i.p. bolus, Day 30
[3] = 20 mg/kg single i.p. bolus, Day 7
[4] = 20 mg/kg single i.p. bolus, Day 30
[5] = 40 mg/kg single i.p. bolus, Day 7

Structure (SMILES): COC(=O)C(C)NP(=O)(OCC1OC(n2cc(C)c(=O)[nH]c2=O)CC1N=[N+]=[N-])Oc1ccc(OC)cc1 (stereo not shown) [Compound 003, 3′-azidothymidine 5′-[p-methoxyphenylmethoxyalaninyl phosphate]]
- ALC [1]: 5.5 ± 0.0 ×10^9/L
- ANC [1]: 1.2 ± 0.0 ×10^9/L
- AST [1]: 137.1 ± 23.1 IU/L
- Albumin [1]: 1.5 ± 0.0 g/dL
- Ammonia [1]: 174.8 ± 11.8 µmol/L
- Amylase [1]: 1728.6 ± 248.5 U/L
- BUN [1]: 24.1 ± 0.8 mg/dL
- Calcium [1]: 8.9 ± 0.2 mg/dL
- Creatinine [1]: 0.3 ± 0.0 mg/dL
- Mean Weight Change (g ± SEM) [1]: 0.16 ± 0.15 g
- Mean Weight Change [%] [1]: (0.6 ± 0.6%)
- Morbidity [1]: 0/20
- Phosphate [1]: 6.2 ± 0.2 mg/dL
- RBC [1]: 9.4 ± 0.2 ×10^12/L
- Total Bilirubin [1]: 0.7 ± 0.1 mg/dL
- Total Protein [1]: 4.1 ± 0.1 g/dL
- Toxic Organ Lesions [1]: 0/20
- Triglycerides [1]: 158.3 ± 18.2 mg/dL
- WBC [1]: 7.3 ± 0.6 ×10^9/L
- Weight Gain [1]: 13/20
- Weight Loss [1]: 7/20
- ALC [2]: 7.5 ×10^9/L and 7.5 ± 0.0 ×10^9/L
- ANC [2]: 2.1 ± 0.0 ×10^9/L
- AST [2]: 114.0 ± 12.4 IU/L
- Albumin [2]: 1.2 ± 0.0 g/dL
- Ammonia [2]: 205.3 ± 15.6 µmol/L
- Amylase [2]: 1993.5 ± 415.9 U/L
- BUN [2]: 21.6 ± 0.7 mg/dL
- Calcium [2]: 8.2 ± 0.2 mg/dL
- Creatinine [2]: 0.3 ± 0.0 mg/dL
- Mean Weight Change (g ± SEM) [2]: 2.61 ± 0.45 g
- Mean Weight Change [%] [2]: (10.4 ± 1.8%)
- Morbidity [2]: 0/20
- Phosphate [2]: 5.7 ± 0.2 mg/dL
- RBC [2]: 9.1 ± 0.1 ×10^12/L
- Total Bilirubin [2]: 0.4 ± 0.0 mg/dL
- Total Protein [2]: 4.0 ± 0.1 g/dL
- Toxic Organ Lesions [2]: 0/20
- Triglycerides [2]: 88.1 ± 10.3 mg/dL
- WBC [2]: 9.9 ± 1.0 ×10^9/L
- Weight Gain [2]: 18/20
- Weight Loss [2]: 2/20
- ALC [3]: 6.9 ± 0.0 ×10^9/L
- ANC [3]: 1.6 ± 0.0 ×10^9/L
- AST [3]: 100.0 ± 6.7 IU/L
- Albumin [3]: 1.4 ± 0.0 g/dL
- Ammonia [3]: 201.9 ± 15.0 µmol/L
- Amylase [3]: 1810.3 ± 268.8 U/L
- BUN [3]: 23.7 ± 0.7 mg/dL
- Calcium [3]: 8.9 ± 0.1 mg/dL
- Creatinine [3]: 0.4 ± 0.0 mg/dL
- Mean Weight Change (g ± SEM) [3]: -0.04 ± 0.16 g
- Mean Weight Change [%] [3]: (−0.1 ± 0.7%)
- Morbidity [3]: 0/20
- Phosphate [3]: 6.6 ± 0.2 mg/dL
- RBC [3]: 9.0 ± 0.3 ×10^12/L
- Total Bilirubin [3]: 0.5 ± 0.1 mg/dL
- Total Protein [3]: 4.2 ± 0.1 g/dL
- Toxic Organ Lesions [3]: 0/20
- Triglycerides [3]: 144.3 ± 17.5 mg/dL
- WBC [3]: 8.7 ± 0.8 ×10^9/L
- Weight Gain [3]: 10/20
- Weight Loss [3]: 10/20
- ALC [4]: 6.8 ×10^9/L and 6.8 ± 0.0 ×10^9/L
- ANC [4]: 2.0 ± 0.0 ×10^9/L
- AST [4]: 107.8 ± 13.2 IU/L
- Albumin [4]: 1.1 ± 0.0 g/dL
- Ammonia [4]: 150.5 ± 10.3 µmol/L
- Amylase [4]: 1587.6 ± 261.5 U/L
- BUN [4]: 20.4 ± 0.6 mg/dL
- Calcium [4]: 8.1 ± 0.1 mg/dL
- Creatinine [4]: 0.3 ± 0.0 mg/dL
- Mean Weight Change (g ± SEM) [4]: 3.01 ± 0.28 g
- Mean Weight Change [%] [4]: (12.4 ± 1.1%)
- Morbidity [4]: 0/20
- Phosphate [4]: 6.2 ± 0.1 mg/dL
- RBC [4]: 9.1 ± 0.2 ×10^12/L
- Total Bilirubin [4]: 0.5 ± 0.0 mg/dL
- Total Protein [4]: 3.8 ± 0.1 g/dL
- Toxic Organ Lesions [4]: 0/20
- Triglycerides [4]: 84.6 ± 7.2 mg/dL
- WBC [4]: 9.3 ± 0.8 ×10^9/L
- Weight Gain [4]: 20/20
- Weight Loss [4]: 0/20
- tubular dilation (20 mg/kg, after the 30 day observation period): 2/20
- ALC [5]: 5.5 ± 0.0 ×10^9/L
- ANC [5]: 1.7 ± 0.0 ×10^9/L
- AST [5]: 134.3 ± 23.2 IU/L
